One compound from ChEMBL document CHEMBL5620390, “A novel multifunctional mitochondrion-targeting NIR fluorophore probe inhibits tumour proliferation and metastasis through the PPARγ/ROS/β-catenin pathway” (Eur J Med Chem, 2023) can be followed below.

A short description of data set [1]: Toxicity in C57BL/6J mouse inoculated with mouse B16-F10 cells assessed as effect on lung morphology at 2 mg/kg, ip administered every other day for 22 days by H and E staining based assay. Format: organism-based. Particulars: in vivo, 528 h, time 22 day.
For data set [2], the system named is B16-F10. The experiment in a line: Antitumor activity against mouse B16-F10 cells inoculated in mouse assessed as reduction in tumor invasion at 2 mg/kg, ip administered every other day and measured on day 18 by H and E staining based assay. Format: functional, organism-based. The settings on record: time 18.0 day.
The test system of data set [3] is A-375. The experiment in a line: Induction of ROS generation in human A-375 cells assessed as reduction in GPX1 expression level at 0.31 to 1.25 uM incubated for 24 hrs. Particulars: dose 0.31-1.25 µM. Format: functional, cell-based.
In data set [4] the test system is A-375. Description: Induction of cell cycle arrest in human A-375 cells assessed as accumulation of cells at G0/G1 phase incubated for 24 hrs by PI staining based flow cytometry analysis (reference value: 12.05%). Format: functional.
Data set [5] concerns B16-F10. The experiment in a line: Induction of ROS generation in mouse B16-F10 cells assessed as reduction in SOD2 expression level at 0.31 to 1.25 uM incubated for 24 hrs. It counts as functional, cell-based. The settings on record: dose 0.31-1.25 µM.
Data set [6] concerns B16-F10. Description: Inhibition of cell metastasis in mouse B16-F10 cells assessed as reduction in MMP9 protein level at 0.31 to 1.25 uM after 24 hrs by Western blotting analysis. Format: functional, cell-based. The settings on record: dose 0.31-1.25 µM.
Data set [7] concerns B16-F10. The experiment in a line: Antitumor activity against mouse B16-F10 cells inoculated in mouse assessed as reduction in spleen metastasis at 2 mg/kg, ip administered every other day and measured on day 18 by H and E staining based assay. The settings on record: time 18.0 day. It counts as functional, organism-based.
Data set [8] can be described thus: Drug uptake in mouse B16-F10 cells implanted in C57BL/6J mouse assessed as fluorescence aggregation in liver at 3 mg/kg, iv measured after 12 hrs. Format: ADME, organism-based. Particulars: in vivo.
Data set [9] concerns A-375. The experiment in a line: Antiproliferative activity against human A-375 cells assessed as inhibition of cell growth at 0.04 to 10 uM by MTT assay. Format: functional, cell-based. Particulars: dose 0.04-10 µM, time 24-72 hrs, TDE = time-dependent effect.
Data set [10] has as its system B16-F10. The experiment in a line: Induction of cell cycle arrest in mouse B16-F10 cells assessed as reduction in Cdk2 protein level at 0.31 to 1.25 uM after 24 hrs by Western blotting analysis. The settings on record: dose 0.31-1.25 µM. Format: functional, cell-based. In general terms: A western blot detects proteins with antibodies after separation by electrophoresis.

In data set [11] the test system is B16-F10. The experiment in a line: Induction of ROS generation in mouse B16-F10 cells assessed as reduction in SOD2 expression level at 1.25 uM preincubated with rosiglitazone for 24 hrs followed by compound addition for 24 hrs. Format: functional, cell-based.
Data set [12] relates to A-375. Description: Inhibition of cell metastasis in human A-375 cells assessed as reduction in MMP9 protein level at 0.31 to 1.25 uM after 24 hrs by Western blotting analysis. Format: functional, cell-based. Particulars: dose 0.31-1.25 µM.
The subject of data set [13] is B16-F10. Description: Antitumor activity against mouse B16-F10 cells inoculated in mouse assessed as increase in E-cadherin expression at 2 mg/kg, ip administered every other day and measured on day 18 by immunohistochemistry analysis. It counts as functional, organism-based. The settings on record: time 18.0 day.
Data set [14] has as its system B16-F10. The experiment in a line: Antiproliferative activity against mouse B16-F10 cells assessed as inhibition of cell growth at 0.04 to 10 uM by MTT assay. Format: functional, cell-based. The settings on record: dose 0.04-10 µM, time 24-72 hrs, TDE = time-dependent effect. On the technique in general: Formazan colour is commonly taken as a measure of viable cells.

In data set [15] the test system is A-375. Description: Inhibition of Wnt/beta-catenin signaling in human A-375 cells assessed as reduction in beta-catenin expression at 1.25 uM incubated for 24 hrs. It counts as cell-based.
Data set [16] concerns A-375. Description: Inhibition of colony formation in human A-375 cells at less than 0.63 uM by crystal violet staining based assay. Format: functional, cell-based.
Data set [17] has as its system A-375. The experiment in a line: Induction of ROS generation in human A-375 cells assessed as reduction in PPARgamma expression level at 1.25 uM preincubated with rosiglitazone for 24 hrs followed by compound addition for 24 hrs. It counts as functional, cell-based.
In data set [18] the test system is B16-F10. The experiment in a line: Inhibition of cell metastasis in mouse B16-F10 cells assessed as reduction in MMP2 protein level at 0.31 to 1.25 uM after 24 hrs by Western blotting analysis. It counts as functional, cell-based. The settings on record: dose 0.31-1.25 µM.
The subject of data set [19] is B16-F10. Description: Inhibition of Wnt/beta-catenin signaling in mouse B16-F10 cells assessed as reduction in beta-catenin expression at 1.25 uM incubated for 24 hrs. Format: cell-based.
Data set [20] relates to A-375. The experiment in a line: Induction of ROS generation in human A-375 cells assessed as reduction in GPX1 expression level at 1.25 uM preincubated with rosiglitazone for 24 hrs followed by compound addition for 24 hrs. Format: functional, cell-based.
Data set [21] concerns A-375. The experiment in a line: Inhibition of tumor metastasis in human A-375 cells assessed as reduction in wound healing after 24 hrs. Format: functional, cell-based. Particulars: dose 0.08-1.25 µM.
In data set [22] the test system is A-375. Description: Induction of cell cycle arrest in human A-375 cells assessed as reduction in Cdk4 protein level at 0.31 to 1.25 uM after 24 hrs by Western blotting analysis. Format: functional, cell-based. Particulars: dose 0.31-1.25 µM.
Data set [23] has as its system A-375. Description: Inhibition of ROS generation in human A-375 cells preincubated with rosiglitazone for 2 hrs followed by wash out and compound addition for 1 hr by DCFH-DA staining based inverted fluorescence microscopic analysis. Format: functional, cell-based.

The structures appear in SMILES notation. The source made the active and inactive calls. No cut-off for these calls is given here.

For `CC[N+]1=C(/C=C/C2=C(Cl)C(=C/C=C3\N(CCCCCC(=O)O/C(=N/C4CCCCC4)NC4CCCCC4)c4ccccc4C3(C)C)/CCC2)C(C)(C)c2ccccc21.[Br-]`, the Activity result in data set [1] is “Non-Toxic”; in data set [4] it was 45.5%; in [9], “Tde”; in [14] it was “Tde”; in data set [23], “Dose-Dependent Effect”. In addition, the outcome in data set [2], in data set [3], in data set [5], in data set [7], in data set [10] and in [13] was Active. The outcome in data set [22] was Active. For the same compound, the inhibition entry in data set [6], in data set [12], in [15], in data set [16], in data set [18] and in [19] was “Active” each time. The Drug uptake entry in data set [8] is on record as “Active”. In addition, the outcome in [11], in data set [17] and in data set [20] was inactive. In addition, in [21], the inhibition result is “Dose-Dependent Effect”.
